Experimental data published in the supplement of paper PMC8671470.

Assays:
Conditions in all cases: 72 h
[1] = system: myeloid leukemia patient primary cells Pat.14; assay: cell viability (% survival relative to DMSO control); higher = less cytotoxic
Summary of the method: (§1)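 Mononuclear cells from patients with AML or CML were thawed, purified on Ficoll and placed in RPMI 1640 with 10% FBS at 10,000 cells/well on 384-well plates. The plates came pre-printed with 70 compounds at five tenfold concentrations spanning 1–10,000 nM, in duplicate, and cells were exposed for 72 h. CellTiter-Glo gave viability, scaled between DMSO wells and wells with 10 μM proteasome inhibitor. Where reported, area under the curve was obtained from log-logistic fits with four parameters using the drc and PharmacoGx R packages.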

[2] = system: myeloid leukemia patient primary cells Pat.15; assay: as above
Summary of the method: as §1

[3] = system: myeloid leukemia patient primary cells Pat.12; assay: as above
Summary of the method: as §1

[4] = system: myeloid leukemia patient primary cells Pat.4; assay: as above
Summary of the method: as §1

[5] = system: myeloid leukemia patient primary cells Pat.9; assay: as above
Summary of the method: as §1

[6] = system: myeloid leukemia patient primary cells Pat.3; assay: as above
Summary of the method: as §1

[7] = system: myeloid leukemia patient primary cells Pat.1; assay: as above
Summary of the method: as §1

[8] = system: myeloid leukemia patient primary cells Pat.7; assay: as above
Summary of the method: as §1

[9] = system: myeloid leukemia patient primary cells Pat.10; assay: as above
Summary of the method: as §1

[10] = system: myeloid leukemia patient primary cells Pat.5; assay: as above
Summary of the method: as §1

[11] = system: myeloid leukemia patient primary cells Pat.2; assay: as above
Summary of the method: as §1

[12] = system: myeloid leukemia patient primary cells Pat.8; assay: as above
Summary of the method: as §1

[13] = system: myeloid leukemia patient primary cells Pat.6; assay: as above
Summary of the method: as §1

[14] = system: myeloid leukemia patient primary cells Pat.11; assay: as above
Summary of the method: as §1

[15] = system: myeloid leukemia patient primary cells Pat.13; assay: as above
Summary of the method: as §1

[16] = system: HL-60
Summary of the method: (§2)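 In 384-well plates holding acoustically pre-printed compounds at five tenfold doses from 1 to 10,000 nM, in duplicate, fifteen myeloid leukaemia cell lines were grown in RPMI 1640 for 72 h at 37 °C with 5% CO2. Luminescent ATP viability was scaled between vehicle and a positive control at 10 µM. The IC50 was then taken from log-logistic dose–response fits with four parameters.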

[17] = system: LAMA-84
Summary of the method: as §2

[18] = system: ML-2
Summary of the method: as §2

[19] = system: KG-1
Summary of the method: as §2

[20] = system: MOLM-13
Summary of the method: as §2

[21] = system: SHI-1
Summary of the method: as §2

[22] = system: NOMO-1
Summary of the method: as §2

[23] = system: MV4-11
Summary of the method: as §2

[24] = system: KU-812
Summary of the method: as §2

[25] = system: Mono-Mac-6
Summary of the method: as §2

[26] = system: HEL
Summary of the method: as §2

[27] = system: THP-1
Summary of the method: as §2

[28] = system: BV-173
Summary of the method: as §2

[29] = system: K-562
Summary of the method: as §2

[30] = system: myeloid leukemia patient primary cells Pat.3; assay: area under dose-response curve (viability, 1 nM-10 uM) (fraction (0-1)); higher = more sensitive
Description: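 AUC (0–1, higher = more sensitive) of the 5-point dose–response (1 nM–10 µM, 72 h, CellTiter-Glo) in primary AML/CML patient mononuclear cells. 0.030103 is the floor for inactive compounds.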

O=C(c1c2ccccc2cc2ccccc12)N1CCC(N2CCC[C@@H](C(=O)N3CCOCC3)C2)CC1
cell viability [%]
Conditions	1 nM	10 nM	100 nM	1000 nM	10000 nM
[1]	88.9	98.9	98.2	56.4	94.4
[2]	93.9	94.5	84.5	71.3	88.6
[3]	> 100	92	99.7	80.6	96.9
[4]	92.6	95	90.2	65.1	60.7
[5]	63.1	88.4	77.5	2.84	71.4
[6]	> 100	96.9	> 100	52.6	78.8
[7]	> 100	83	> 100	58.3	96.7
[8]	94.1	87.2	87.3	19	76.8
[9]	88.3	67.9	78.7	29.7	80.8
[10]	89.3	67.2	94.9	0.265	69.8
[11]	94.4	99.4	98	75.4	98.1
[12]	87.7	> 100	93.3	69.3	87.5
[13]	99.8	96.8	96.6	74.9	96.6
[14]	99.3	> 100	92.5	72.6	98
[15]	85.6	89.6	92.9	62.8	86.7

Conditions	IC50 (cell viability) [nM]	area under dose-response curve
[16]	1810	–
[17]	> 10000	–
[18]	> 10000	–
[19]	> 10000	–
[20]	2770	–
[21]	> 10000	–
[22]	> 10000	–
[23]	8820	–
[24]	> 10000	–
[25]	> 10000	–
[26]	> 10000	–
[27]	> 10000	–
[28]	> 10000	–
[29]	> 10000	–
[30]	–	< 0.0301

Oc1ncc(F)c(O)n1 [5-fluorouracil]
cell viability [%]
Conditions	1 nM	10 nM	100 nM	1000 nM	10000 nM
[1]	94.6	87	90.3	90.2	84.9
[2]	83.4	91.5	96.7	91	93.9
[3]	94.2	95.4	87.6	95.5	91.4
[4]	90.8	88.4	92.1	88.9	60.6
[5]	76.6	52.3	92.6	71.4	45.4
[6]	90.4	96.5	94.5	96.6	41.9
[7]	88.5	93.1	91	97	85.8
[8]	89.7	83.9	82.8	92.8	50.8
[9]	> 100	78.1	65	68.9	50.5
[10]	88.1	90.3	84.7	61.3	13.9
[11]	95.9	94.9	99.1	88.9	97.5
[12]	85.8	86.3	94.5	80.1	98.7
[13]	> 100	96.6	95.8	99.3	98.5
[14]	99.9	97.2	96.6	96.7	95.7
[15]	88.8	91.2	90	72.7	81

Conditions	IC50 (cell viability) [nM]	area under dose-response curve
[16]	1070	–
[17]	6310	–
[18]	2300	–
[19]	4310	–
[20]	353	–
[21]	2690	–
[22]	9600	–
[23]	435	–
[24]	> 10000	–
[25]	711	–
[26]	2300	–
[27]	> 10000	–
[28]	3480	–
[29]	> 10000	–
[30]	–	0.0441

CN(C)CCNC(=O)c1cccn2c(=O)c3cc4ccccc4cc3nc12 [Bmh-21]
cell viability [%]
Conditions	1 nM	10 nM	100 nM	1000 nM	10000 nM
[1]	87.3	95	90.6	42.8	3.08
[2]	91.5	99.6	92.4	0.134	0.56
[3]	94.1	91.9	97.3	55.1	0.342
[4]	81.3	89.6	93.9	3.78	1.54
[5]	63	90.4	69.9	3.68	3.45
[6]	94.4	90.3	88.3	12.1	3.46
[7]	85.9	91.9	91.5	3.71	0.712
[8]	59.2	82.6	92.7	14.1	4.95
[9]	74.6	87.5	72.1	38.9	17.3
[10]	35.6	94.1	79.9	1.33	0.265
[11]	96.5	98.5	97.8	91.6	33.1
[12]	81.8	74.6	79.8	88.3	< 0
[13]	96.4	> 100	> 100	67.1	10.2
[14]	> 100	97.6	> 100	24.3	1.02
[15]	87.4	96.6	84.1	19.7	1.27

Conditions	IC50 (cell viability) [nM]	area under dose-response curve
[16]	> 10000	–
[17]	486	–
[18]	314	–
[19]	407	–
[20]	2380	–
[21]	> 10000	–
[22]	923	–
[23]	2780	–
[24]	479	–
[25]	347	–
[26]	331	–
[27]	910	–
[28]	293	–
[29]	9110	–
[30]	–	0.351
